We go through one compound from patent US20050209104A1, “Dinoflagellate karlotoxins, methods of isolation and uses thereof” (priority 2002, published 2005).

The test system of data set [1] is zebrafish (Danio rerio-60 days old). The data set is described as follows: Effect of KmTx 2 on fish (mortality and histology). The data set is classed as in vivo. The method, then:
Zebrafish (Danio rerio-60 days old) were exposed to 0.1, 0.5, 1, or 2 μg/ml KmTx 2 in 50 ml of aerated reconstituted fresh water (soft) [ASTM, 1992 #125]. Toxin dilutions were made in MeOH (200 μl max. per treatment) and controls were exposed to 200 μl MeOH only. Three fish were exposed per replicate, three replicates per treatment. […] Upon death, fish were preserved in neutral buffered formalin and prepared for histological examination as described in Noga 2000.

The next data set concerns Oxyrrhis marina. Put plainly: Effect of KmTx 2 on a potential grazer. The class given is cell-based. How it is done:
(§1) Oxyrrhis marina (1.7×10^4 cells/mil) and K. micrum (CCMP 2282) (3.5×10^4 cells/ml) were exposed, in triplicate, to 0, 0.1, 0.5, and 1 μg/ml KmTx 2 in six well non-tissue culture treated polystyrene plates (Becton Dickinson Labware, Lincoln Park N.J.). The O. marina culture was obtained through single cell isolation from a Chesapeake Bay water sample and was maintained in 15 psu artificial sea water (Instant Ocean Brand) using Rhodomonas sp. (CCMP 767) as a food source. O. marina was starved for 24 hours prior to exposures to reduce the number of food organisms. K. micrum (CCMP 2282) was maintained in 12 psu artificial sea water (Instant Ocean Brand) with f/2 nutrient mixture plus 1% soil extract as described in Deeds et al. (2002). Cell densities were measured at 1 and 24 hours using a Coulter Multisizer II particle counter by enumerating the 7-20 μm and the […] size fractions, respectively, for K. micrum and O. marina using a Coulter Accucomp software package (Coulter Electronics Limited, Miami Fla.). Significant differences (p<0.05) among mean cell numbers for different treatments were tested for using one-way analysis of variance with Scheffe's post hoc test using SPSS Base 10.0 statistical software (SPSS Inc., Chicago, Ill.).
(§2) Hemolytic activity remaining in solution was measured at 1 hour by mixing 100 μl of each treatment with an equal volume of diluted rainbow trout RBC suspension as described above in Example 3.

Data set [2] has as its system rat ventricular cardiac myocytes. The data set is described as follows: Ion permeation measurement, Ca^2+ with fura-2 (cardiac myocyte). The data set is classed as cell-based. The settings on record: 60 seconds after application of 0.25 μg/ml.
Another data set deals with K. micrum (CCMP 2282). Put plainly: Exposure of Karlodinium micrum to KmTx 2. The data set is classed as cell-based. The method, then:
as §1, with “Significant differences (p<0.05) among mean cell numbers for different treatments were tested for using one-way analysis of variance with Scheffe's post hoc test using SPSS Base 10.0 statistical software (SPSS Inc., Chicago, Ill.).” left out
as §2

The subject of data set [3] is Aspergillus niger (ATCC 1004). The data set is described as follows: Anti-fungal broth microdilution assay (filamentous fungi). The class given is cell-based. How it is done:
The following fungal strains were purchased from the American Type Culture Collection (Manassas, Va.), Aspergillus niger (ATCC 1004) as a representative filamentous fungi, and Candida albicans (ATCC 14053) as a representative yeast. Assays were performed according to the following National Committee for Clinical Laboratory Standards documents; M27-A2 Reference Method for Broth Dilution Antifungal Susceptibility Testing of Yeasts; Approved Standard—Second Edition([NCCLS, 2002), and M38-A Reference Method for Broth Dilution Antifungal Susceptibility Testing of Filamentous Fungi; Approved Standard (NCCLS, 2002). Procedures for the broth microdilution modification were followed for both species with the following exceptions; A. niger stocks were maintained on Potato Dextrose Agar at 25° C., while C. albicans was maintained on Yeast Malt Agar at 28° C., both according to ATCC recommendations. Amphotericin B was used as a positive control. Microdilution assays were performed in HyQ-RPMI-1640 media (HyClone, Logan, Utah.), with 2.05 mM L-glutamine, without sodium bicarbonate, pH 7.2 using dilutions of 1 mg/ml DMSO stocks of KmTx 2 and amphotericin B.
The following concentrations were tested for both KmTx2 and amphotericin B: 0.0625, 0.125, 0.25, 0.5, 1, 2, 4, 8, and 16 μg/ml. A maximum of 1.6% DMSO was added to any given well. Plates were incubated at 25 and 28° C., respectively, for A. niger and C. albicans. […] Amphotericin B and all culture media were purchased from Sigma-Aldrich (St. Louis, Mo.).
On the technique in general: Broth dilution looks for growth in wells or tubes with falling amounts of substance.

Data set [4] has as its system rainbow trout erythrocytes. Put plainly: Osmotic protection assay. The data set is classed as cell-based. The settings on record: 30 mM osmolyte, even at 1 μg/ml KmTx 2. How it is done:
The following osmolytes (all purchased from Sigma-Aldrich Co., St Louis, Mo.) were prepared as 30 mM solutions using the Tris buFFer +CaCl2: sucrose (MW 342.3), polyethylene glycol (MW 400), polyethylene glycol (MW 600), maltohexaose (MW 990.0), polyethylene glycol (MW 8,000), dextran (MW 10,000). Osmolarity of each solution was measured using a Vapro 5520 vapor pressure osmometer (Wescor Inc., Logan Utah). […] The osmolarities of PEG 8,000 and 10,000 MW dextran were approximately double this amount (ca. 640 mOsm).
Assays were performed by preparing trout erythrocyte suspensions and toxin dilutions (0, 0.25 0.5, and 1 μg/ml) in the appropriate osmolyte solution and performing the hemolysis assay as described in supplemental materials.

≈ marks a conversion by molar mass, not a printed value. A value given as a limit tells only on which side of the number the result lay.

As to `C=C(CC[C@H](O)[C@H]1O[C@H](C[C@@H](O)[C@H](O)[C@H](C)CCC[C@@H](O)[C@H](O)[C@H](O)[C@@H](C)CC[C@@H](O)[C@H](O)[C@H](C)C[C@@H](O)CCC[C@@H](O)CCC[C@@H](O)/C=C/C[C@@H](O)CO)[C@@H](O)[C@@H](O)[C@@H]1O)[C@H](O)[C@H](O)[C@@H]1C[C@H](O)[C@H](O)[C@@H]([C@H](O)[C@@H](O)/C=C/CCCCCCCC/C=C/C=C/Cl)O1` [KmTx 2], the survival entry in data set [1] (0.1 μg/ml, 6 hr exposure) is “survived the full 6 hr exposure”. Besides, the “histological examination of gills” value in data set [1] (0.1 μg/ml, 6 hrs) was “loss of secondary structure of gill lamellae and sloughing of gill epithelial tissue”. Further, in data set [1] (0.5 μg/ml), the “histological examination of gills” value was “Severe necrosis and degeneration of gill tissue”; the “time to death, all fish” value is below 1 h. In addition, the “reduction of O. marina cell densities” value with Oxyrrhis marina (1 μg/ml, after 24 hours) is recorded as above 90%. Moreover, the “cell lysis of O. marina” value with Oxyrrhis marina (0.5 and 1 μg/ml treatments at 1 hour) is “significant (P<0.05) cell lysis”. In addition, in the data set with Oxyrrhis marina (after 1 hour, all KmTx 2 concentrations, O. marina compared to K. micrum exposed cultures), the “hemolytic activity remaining in solution” value is given as “reduced”. Further, the “[Ca^2+]i in cardiac myocyte” value in data set [2] is “dramatically elevated”. Also, in the data set on K. micrum (CCMP 2282) (1 μg/ml, after 24 hours), the “K. micrum culture growth” value is “continued to divide”. In addition, the “effect on cultures of K. micrum” value in the data set on K. micrum (CCMP 2282) (0.1, 0.5, and 1 μg/ml) was “no effect”. Further, in data set [3] (depending on species tested (A. niger, C. albicans)), the “anti-fungal activity, fold lower than for amphotericin B” value is given as 10-100 fold. Moreover, the “Minimal inhibitory concentration (MIC)” value in data set [3] (lowest dose with no growth after 96 hours, 25° C.) was found to be 8 µg/mL (≈ 5.94 µM). Besides, the “molecular weight of inert osmolyte giving complete prevention of lysis” value in data set [4] is > 8,000 Da.
